Like-named read-outs stand apart in the source and are kept apart here.
What was measured:
PANC-1 = test: MTT cell viability after iridium complex treatment, with or without light (photodynamic cancer cell killing); type: cell-based; conditions: for cell viability (hv−): FIG. 6D, especially 16 and 32 μM
Method: (§1) After seeding 1.5×10^4 cells in a 96-well plate, the cells were cultured overnight at 37° C. under 5% carbon dioxide conditions. Afterwards, the cells were treated with the iridium complex and cultured for 2 hours, after which the medium was replaced with fresh medium. After irradiated for 30 seconds with a 1 sun simulator (100 mW/cm2, PEG-L01, Peccell), cells were cultured for an additional 24 hours in a humidified incubator containing 5% carbon dioxide at 37° C. Cell viability was measured using the MTT (tetrazolium salt (3-(4,5-dimethylthiazol-2-yl)-2,5-diphenyltetrazolium bromide)) assay. MTT reagent was added to each well and cultured for 4 hours, and then the formazan crystals produced in the surviving cells were dissolved in DMSO, followed by measurement of the absorbance at 570 nm.
(§2) When the same light (1 sun, 3 J/cm^2) was irradiated to cancer cells administered with the HBrb, B2, and TIr3 iridium complexes as respective photosensitizers, the IC50 values for the respective photo sensitizers were first calculated, and the results are shown in Table 2 below.
(§3) Data indicating the inherent toxicity may be determined by cell viability under conditions without light application (hv−). The experimental results in FIGS. 6A-6F show the cell viability for each cell under conditions where no light was given, where M indicates the cell line MDA-MB-231, A indicates the cell line A549, H indicates the cell line HeLa, C indicates the cell line Caco-2, and P indicates the cell line PANC-1, respectively. FIGS. 6A, 6B, and 6C represent the cell viability when each substance was administered to each cell line for 2 hours, replaced with new media, and then cultured for an additional 24 hours. FIG. 6D is a graph of cell viability when TIr3 and B2 were administered at different concentrations, and at the concentration of a combination of the two (TIr3+B2), to PANC-1, pancreatic cancer cells. […] FIGS. 6E and 6F show the results of identifying the change in the cell viability in the MDA-MB-231 breast cancer cell line under conditions with TIr3 only and the TIr3+B2 combination depending on the presence of light irradiation.

A549 = test: as above; type: cell-based
Method: as §1, §2, §3

HeLa = test: as above; type: cell-based; conditions: for IC50: HeLa
Method: as §1, §2, §3

[1] = Dynamic light scattering of Kolliphor HS15 micelles; type: physicochemical; conditions: 1 mg/mL in distilled water using 5% Kolliphor HS15
Method: FIGS. 7A-7E illustrates schematic diagrams of micellized synergistic combination (SY) of TIr3 and B2 using Kolliphor HS 15 surfactant (FIG. 7A). As a result, when TIr3, B2, and 0.5 mg/ml TIr3+0.5 mg/ml B2 (SY) materials are dissolved in distilled water at a concentration of 1 mg/mL using 5% Kolliphor HS15, it was found via dynamic light scattering (DLS) that nanoparticles with a size of approximately 10 nm were formed (FIG. 7B). In addition, the size of the SY combination was reidentified through transmission electron microscopy (TEM) (FIG. 7C). […] After four administrations of the drug, the results of hepatotoxicity (alanine aminotransferase, ALT) on the 17th day are shown in FIG. 7E.

MDA-MB-231 = test: MTT cell viability after iridium complex treatment, with or without light (photodynamic cancer cell killing); type: cell-based
Method: as §1, §2, §3

Caco-2 = test: as above; type: cell-based
Method: as §1, §2, §3

MKN45 = test: as above; type: cell-based
Method: as §1, §2

[2] = light 1 sun, 3 J/cm^2 (100 mW/cm2, 30 s), 2 h treatment, 24 h culture, read-out: IC50 (hv+)
[3] = light 1 sun, 3 J/cm^2, read-out: IC50 (hv+)
[4] = no light, read-out: IC50 (hv−), IC50, dark

Row | Compound | IC50 (PANC-1; [2]) [µM] | IC50 (A549; [2]) [µM] | IC50 (HeLa; [2]) [µM] | nanoparticle size (DLS) [1] | IC50 (MDA-MB-231; [3]) [µM] | IC50 (MDA-MB-231; [4]) [µM] | cell viability (hv−) (PANC-1; no light) | IC50 (PANC-1; [4]) [µM] | IC50 (A549; [4]) [µM] | IC50 (HeLa; [4]) [µM] | IC50 (Caco-2; [3]) [µM] | IC50 (Caco-2; [4]) [µM] | IC50 (MKN45; [3]) [µM] | IC50 (MKN45; [4]) [µM] | inherent toxicity of photosensitizer (HeLa; up to 32 μM, no light)
1 | O=C([O][Ir]([c]1c(-c2cc(C(F)(F)F)c3ccccc3n2)sc2ccccc12)[c]1c(-c2cc(C(F)(F)F)c3ccccc3n2)sc2ccccc12)c1ncccc1O [FIrp] | > 32 | > 32 | > 32 |  |  |  |  |  |  |  |  |  |  |  | 
2 | [Cl-].c1ccc(-c2ccc3ccccc3n2)[c]([Ir+][c]2ccccc2-c2ccc3ccccc3n2)c1.c1ccc(-c2ccccn2)nc1 [TIr3] | 3.86 ± 0.18 | 3.12 ± 0.2 | 1.53 ± 0.07 | approximately 10 nm | 0.89 ± 0.02 | 7.51 ± 0.84 | low cell viability | 10.7 ± 0.39 | 19.8 ± 1.99 | 8.77 ± 0.73 | 0.89 ± 0.09 | 7.88 ± 0.13 | 0.55 ± 0.06 | 16.3 ± 0.17 | 
3 | CC(=O)C=C(C)[O][Ir]([c]1c(-c2cc(C)c3ccccc3n2)sc2ccccc12)[c]1c(-c2cc(C)c3ccccc3n2)sc2ccccc12 [HIra] | > 32 | > 32 | > 32 |  |  |  |  |  |  |  |  |  |  |  | 
4 | CC(=O)C=C(C)[O][Ir]([c]1c(-c2cc(C(F)(F)F)c3ccccc3n2)sc2ccccc12)[c]1c(-c2cc(C(F)(F)F)c3ccccc3n2)sc2ccccc12 [FIra] | > 32 | > 32 | > 32 |  |  |  |  |  |  |  |  |  |  |  | 
5 | Cc1cc(-c2sc3ccccc3[c]2[Ir]([O]C(=O)c2ncccc2OCCCN2CCOCC2)[c]2c(-c3cc(C)c4ccccc4n3)sc3ccccc23)nc2ccccc12 [Example B2] | 11.7 ± 2.02 | 3.8 ± 1.3 | 2.4 ± 0.08 | approximately 10 nm | 0.89 ± 0.1 | > 32 | excellent biocompatibility | > 32 | > 32 | > 32 | 0.68 ± 0.01 | > 32 | 0.86 ± 0.03 | > 32 | non-toxic

— patent publication US20260233024A1, “IRIDIUM COMPLEX, PHOTOSENSITIZER, AND COMPOSITION FOR PHOTODYNAMIC THERAPY” (UNIST(ULSAN NATIONAL INSTITUTE OF SCIENCE AND TECHNOLOGY), priority 2022, published 2026)
